Measured values: patent US12391648B2, “Pyridyloxy thioester derivative and preparation method therefor, herbicidal composition, and application” (Qingdao Kingagroot Chemical Compound Co., Ltd., priority 2018, dated 2025)

Legend:
Assay type in all cases: in vivo
Indica rice = experiment: Post-emergence test experiment (Table 4), crop safety; conditions: 600 g/ha active ingredient, plus water 450 kg/ha, after 3 weeks
Description: (§1) The activity level standard of harmful plants destruction (i. e. growth inhibition rate) is as follows: • Level 5: the growth inhibition rate is greater than 85%; • Level 4: the growth inhibition rate is equal to or greater than 60% and less than 85%; • Level 3: the growth inhibition rate is equal to or greater than 40% and less than 60%; • Level 2: the growth inhibition rate is equal to or greater than 20% and less than 40%; • Level 1: the growth inhibition rate is equal to or greater than 5% and less than 20%; • Level 0: the growth inhibition rate is less than 5%;
(§2) The above described growth inhibition rate is fresh weight inhibition rate.
(§3) Post-emergence test experiment: Monocotyledonous and dicotyledonous weed seeds and main crop seeds (i. e. wheat, corn, rice, soybean, cotton, oilseed, millet and sorghum.) were put into a plastic pot loaded with soil. Then covered with 0.5-2 cm soil, the seeds were allowed to grow in good greenhouse environment. The test plants were treated at 2-3 leaf stage 2 weeks after sowing. The test compounds of the invention were dissolved with acetone respectively, then added with tween-80, and using 1.5 liters per hectare of an emulsible concentrate of methyl oleate as a synergist, and diluted by certain amount of water to certain concentration. The solution was sprayed to the plants with a sprayer. Then the plants were cultured for 3 weeks in the greenhouse, and the experiment result of weed controlling effect after 3 weeks was listed in tables 3-4.
(§4) […] Echinochloa crusgalli and Cyperus iria were collected from Ningxia Hui Autonomous Region of China, which had evolved resistance to ALS inhibiting herbicides. • Control compound A:

Japonica rice = experiment: as above; conditions: 600 g/ha active ingredient, plus water 450 kg/ha, after 3 weeks
Description: as §1, §2, §3, §4

[1] = tested on: ALS resistant Echinochloa crusgalli; experiment: Post-emergence test experiment (Table 4), weed control; conditions: 600 g/ha active ingredient, plus water 450 kg/ha, after 3 weeks
Description: as §1, §2, §3, §4

[2] = tested on: ALS resistant Cyperus iria; experiment: as above; conditions: 600 g/ha active ingredient, plus water 450 kg/ha, after 3 weeks
Description: as §1, §2, §3, §4

Monochoria vaginalis [3] = experiment: Post-emergence test experiment (Table 3, 1000 g/ha); conditions: post-emergence spray, after 3 weeks, fresh weight inhibition
How it was run: (§5)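 Weed seeds sown in soil-filled pots in greenhouse, sprayed at 2-3 leaf stage (2 weeks after sowing) with compound in acetone/tween-80 plus methyl oleate emulsible concentrate (1.5 L/ha) diluted in water. Fresh-weight growth inhibition scored after 3 weeks on 0-5 scale (5: >85%, 0: <5%).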

Setaria viridis = experiment: as above; conditions: post-emergence spray, after 3 weeks, fresh weight inhibition
How it was run: as §5

Digitaria sanguinalis = experiment: as above; conditions: post-emergence spray, after 3 weeks, fresh weight inhibition
How it was run: as §5

Leptochloa chinensis = experiment: as above; conditions: post-emergence spray, after 3 weeks, fresh weight inhibition
How it was run: as §5

Galium spurium = experiment: as above; conditions: post-emergence spray, after 3 weeks, fresh weight inhibition
How it was run: as §5

Abutilon theophrasti = experiment: as above; conditions: post-emergence spray, after 3 weeks, fresh weight inhibition
How it was run: as §5

Monochoria vaginalis [4] = experiment: Weed control effect evaluation in rice field; conditions: 1000 g/ha, paddy water application at 0.5 leaf stage, 14 days after treatment, weeds resistant to pyrazosulfuron-ethyl and penoxsulam
Description: as §1
(§6) Transplanted rice safety evaluation and weed control effect evaluation in rice field:
Rice field soil was loaded into a 1/1,000,000 ha pot. The seeds of Monochoria vaginalis were sowed and gently covered with soil, then left to stand still in greenhouse in the state of 0.5-1 cm of water storage. It was kept at 3-4 cm of water storage thereafter. The weeds were treated by dripping the WP or SC water diluents prepared according to the common preparation method of the compounds of the present invention with pipette homogeneously to achieve specified effective amount when Monochoria vaginalis reached 0. 5 leaf stage.
(§7) The fertility condition of Monochoria vaginalis 14 days and rice 21 days after the treatment of the compound of the invention with the naked eye.
Note: The seeds of Monochoria vaginalis were collected from Heilongjing Province of China.

rice (japonica rice) = experiment: Transplanted rice safety evaluation; conditions: 1000 g/ha, transplanted 3-leaf stage japonica rice, treated 5 days after transplantation, 21 days after treatment
Description: as §1, §6
In addition, the rice field soil that loaded into the 1/1,000,000 ha pot was leveled to keep water storage at 3-4 cm depth. The 3-leaf stage rice (japonica rice) was transplanted at 3 cm of transplanting depth the next day. The compound of the present invention was treated by the same way after 5 days of transplantation.
as §7

SMILES: CSC(=O)C(C)Oc1nc(F)c(Cl)c(N)c1Cl (stereo not drawn) [Compound 4]
- Indica rice, activity level (growth inhibition rate) (Indica rice): 0 (Level 0: the growth inhibition rate is less than 5%)
- Japonica rice, activity level (growth inhibition rate) (Japonica rice): 0 (Level 0: the growth inhibition rate is less than 5%)
- ALS resistant Echinochloa crusgalli, activity level (growth inhibition rate) [1]: 5 (Level 5: the growth inhibition rate is greater than 85%)
- ALS resistant Cyperus iria, activity level (growth inhibition rate) [2]: 5 (Level 5: the growth inhibition rate is greater than 85%)
- Activity level (growth inhibition rate) Monochoria Vaginalis (Monochoria vaginalis [3]): 5 (Level 5: the growth inhibition rate is greater than 85%)
- Activity level (growth inhibition rate) Setaria viridis (Setaria viridis): 5 (Level 5: the growth inhibition rate is greater than 85%)
- Activity level (growth inhibition rate) Digitaria sanguinalis (Digitaria sanguinalis): 5 (Level 5: the growth inhibition rate is greater than 85%)
- Activity level (growth inhibition rate) Leptochloa chinensis (Leptochloa chinensis): 5 (Level 5: the growth inhibition rate is greater than 85%)
- Activity level (growth inhibition rate) Galium spurium (Galium spurium): 5 (Level 5: the growth inhibition rate is greater than 85%)
- Activity level (growth inhibition rate) Abutilon theophrasti (Abutilon theophrasti): 5 (Level 5: the growth inhibition rate is greater than 85%)
- Monochoria Vaginalis, activity standard level 0-5 (Monochoria vaginalis [4]): 5 (Level 5: the growth inhibition rate is greater than 85%)
- Rice, activity standard level 0-5 (safety) (rice (japonica rice)): 0 (Level 0: the growth inhibition rate is less than 5%)

SMILES: COC(=O)OC(C)SC(=O)C(C)Oc1nc(F)c(Cl)c(N)c1Cl (stereo not drawn) [Compound 98]
- Indica rice, activity level (growth inhibition rate) (Indica rice): 0 (Level 0: the growth inhibition rate is less than 5%)
- Japonica rice, activity level (growth inhibition rate) (Japonica rice): 0 (Level 0: the growth inhibition rate is less than 5%)
- ALS resistant Echinochloa crusgalli, activity level (growth inhibition rate) [1]: 5 (Level 5: the growth inhibition rate is greater than 85%)
- ALS resistant Cyperus iria, activity level (growth inhibition rate) [2]: 5 (Level 5: the growth inhibition rate is greater than 85%)
- Activity level (growth inhibition rate) Monochoria Vaginalis (Monochoria vaginalis [3]): 5 (Level 5: the growth inhibition rate is greater than 85%)
- Activity level (growth inhibition rate) Setaria viridis (Setaria viridis): 5 (Level 5: the growth inhibition rate is greater than 85%)
- Activity level (growth inhibition rate) Digitaria sanguinalis (Digitaria sanguinalis): 5 (Level 5: the growth inhibition rate is greater than 85%)
- Activity level (growth inhibition rate) Leptochloa chinensis (Leptochloa chinensis): 5 (Level 5: the growth inhibition rate is greater than 85%)
- Activity level (growth inhibition rate) Galium spurium (Galium spurium): 5 (Level 5: the growth inhibition rate is greater than 85%)
- Activity level (growth inhibition rate) Abutilon theophrasti (Abutilon theophrasti): 5 (Level 5: the growth inhibition rate is greater than 85%)
- Monochoria Vaginalis, activity standard level 0-5 (Monochoria vaginalis [4]): 5 (Level 5: the growth inhibition rate is greater than 85%)
- Rice, activity standard level 0-5 (safety) (rice (japonica rice)): 0 (Level 0: the growth inhibition rate is less than 5%)

SMILES: CSC(=O)C(C)Oc1ncc(Cl)c(N)c1Cl (stereo not drawn) [Compound 3]
- Indica rice, activity level (growth inhibition rate) (Indica rice): 0 (Level 0: the growth inhibition rate is less than 5%)
- Japonica rice, activity level (growth inhibition rate) (Japonica rice): 0 (Level 0: the growth inhibition rate is less than 5%)
- ALS resistant Echinochloa crusgalli, activity level (growth inhibition rate) [1]: 5 (Level 5: the growth inhibition rate is greater than 85%)
- ALS resistant Cyperus iria, activity level (growth inhibition rate) [2]: 5 (Level 5: the growth inhibition rate is greater than 85%)
- Activity level (growth inhibition rate) Monochoria Vaginalis (Monochoria vaginalis [3]): 5 (Level 5: the growth inhibition rate is greater than 85%)
- Activity level (growth inhibition rate) Setaria viridis (Setaria viridis): 5 (Level 5: the growth inhibition rate is greater than 85%)
- Activity level (growth inhibition rate) Digitaria sanguinalis (Digitaria sanguinalis): 5 (Level 5: the growth inhibition rate is greater than 85%)
- Activity level (growth inhibition rate) Leptochloa chinensis (Leptochloa chinensis): 5 (Level 5: the growth inhibition rate is greater than 85%)
- Activity level (growth inhibition rate) Galium spurium (Galium spurium): 5 (Level 5: the growth inhibition rate is greater than 85%)
- Activity level (growth inhibition rate) Abutilon theophrasti (Abutilon theophrasti): 5 (Level 5: the growth inhibition rate is greater than 85%)
- Monochoria Vaginalis, activity standard level 0-5 (Monochoria vaginalis [4]): 5 (Level 5: the growth inhibition rate is greater than 85%)
- Rice, activity standard level 0-5 (safety) (rice (japonica rice)): 0 (Level 0: the growth inhibition rate is less than 5%)

SMILES: CC(Oc1nc(F)c(Cl)c(N)c1Cl)C(=O)SCCCC(F)(F)F (stereo not drawn) [Compound 79]
- Indica rice, activity level (growth inhibition rate) (Indica rice): 0 (Level 0: the growth inhibition rate is less than 5%)
- Japonica rice, activity level (growth inhibition rate) (Japonica rice): 0 (Level 0: the growth inhibition rate is less than 5%)
- ALS resistant Echinochloa crusgalli, activity level (growth inhibition rate) [1]: 5 (Level 5: the growth inhibition rate is greater than 85%)
- ALS resistant Cyperus iria, activity level (growth inhibition rate) [2]: 5 (Level 5: the growth inhibition rate is greater than 85%)
- Activity level (growth inhibition rate) Monochoria Vaginalis (Monochoria vaginalis [3]): 5 (Level 5: the growth inhibition rate is greater than 85%)
- Activity level (growth inhibition rate) Setaria viridis (Setaria viridis): 5 (Level 5: the growth inhibition rate is greater than 85%)
- Activity level (growth inhibition rate) Digitaria sanguinalis (Digitaria sanguinalis): 5 (Level 5: the growth inhibition rate is greater than 85%)
- Activity level (growth inhibition rate) Leptochloa chinensis (Leptochloa chinensis): 5 (Level 5: the growth inhibition rate is greater than 85%)
- Activity level (growth inhibition rate) Galium spurium (Galium spurium): 5 (Level 5: the growth inhibition rate is greater than 85%)
- Activity level (growth inhibition rate) Abutilon theophrasti (Abutilon theophrasti): 5 (Level 5: the growth inhibition rate is greater than 85%)
- Monochoria Vaginalis, activity standard level 0-5 (Monochoria vaginalis [4]): 5 (Level 5: the growth inhibition rate is greater than 85%)
- Rice, activity standard level 0-5 (safety) (rice (japonica rice)): 0 (Level 0: the growth inhibition rate is less than 5%)

SMILES: CCCCC(CC)CSC(=O)C(C)Oc1nc(F)c(Cl)c(N)c1Cl (stereo not drawn) [Compound 74]
- Indica rice, activity level (growth inhibition rate) (Indica rice): 0 (Level 0: the growth inhibition rate is less than 5%)
- Japonica rice, activity level (growth inhibition rate) (Japonica rice): 0 (Level 0: the growth inhibition rate is less than 5%)
- ALS resistant Echinochloa crusgalli, activity level (growth inhibition rate) [1]: 5 (Level 5: the growth inhibition rate is greater than 85%)
- ALS resistant Cyperus iria, activity level (growth inhibition rate) [2]: 5 (Level 5: the growth inhibition rate is greater than 85%)
- Activity level (growth inhibition rate) Monochoria Vaginalis (Monochoria vaginalis [3]): 5 (Level 5: the growth inhibition rate is greater than 85%)
- Activity level (growth inhibition rate) Setaria viridis (Setaria viridis): 5 (Level 5: the growth inhibition rate is greater than 85%)
- Activity level (growth inhibition rate) Digitaria sanguinalis (Digitaria sanguinalis): 5 (Level 5: the growth inhibition rate is greater than 85%)
- Activity level (growth inhibition rate) Leptochloa chinensis (Leptochloa chinensis): 5 (Level 5: the growth inhibition rate is greater than 85%)
- Activity level (growth inhibition rate) Galium spurium (Galium spurium): 5 (Level 5: the growth inhibition rate is greater than 85%)
- Activity level (growth inhibition rate) Abutilon theophrasti (Abutilon theophrasti): 5 (Level 5: the growth inhibition rate is greater than 85%)
- Monochoria Vaginalis, activity standard level 0-5 (Monochoria vaginalis [4]): 5 (Level 5: the growth inhibition rate is greater than 85%)
- Rice, activity standard level 0-5 (safety) (rice (japonica rice)): 0 (Level 0: the growth inhibition rate is less than 5%)

SMILES: CSC(=O)C(C)Oc1nc(F)c(Cl)c(NCc2ccco2)c1Cl (stereo not drawn) [Compound 130]
- Indica rice, activity level (growth inhibition rate) (Indica rice): 0 (Level 0: the growth inhibition rate is less than 5%)
- Japonica rice, activity level (growth inhibition rate) (Japonica rice): 0 (Level 0: the growth inhibition rate is less than 5%)
- ALS resistant Echinochloa crusgalli, activity level (growth inhibition rate) [1]: 5 (Level 5: the growth inhibition rate is greater than 85%)
- ALS resistant Cyperus iria, activity level (growth inhibition rate) [2]: 5 (Level 5: the growth inhibition rate is greater than 85%)
- Activity level (growth inhibition rate) Monochoria Vaginalis (Monochoria vaginalis [3]): 5 (Level 5: the growth inhibition rate is greater than 85%)
- Activity level (growth inhibition rate) Setaria viridis (Setaria viridis): 5 (Level 5: the growth inhibition rate is greater than 85%)
- Activity level (growth inhibition rate) Digitaria sanguinalis (Digitaria sanguinalis): 5 (Level 5: the growth inhibition rate is greater than 85%)
- Activity level (growth inhibition rate) Leptochloa chinensis (Leptochloa chinensis): 5 (Level 5: the growth inhibition rate is greater than 85%)
- Activity level (growth inhibition rate) Galium spurium (Galium spurium): 5 (Level 5: the growth inhibition rate is greater than 85%)
- Activity level (growth inhibition rate) Abutilon theophrasti (Abutilon theophrasti): 5 (Level 5: the growth inhibition rate is greater than 85%)
- Monochoria Vaginalis, activity standard level 0-5 (Monochoria vaginalis [4]): 5 (Level 5: the growth inhibition rate is greater than 85%)
- Rice, activity standard level 0-5 (safety) (rice (japonica rice)): 0 (Level 0: the growth inhibition rate is less than 5%)
